This passage reports Efficacy results from ChEMBL document CHEMBL1138757, “Synthesis and photosensitizing efficacy of isomerically pure bacteriopurpurinimides” (2004).

The species entered for test [1] is Mus musculus. Put plainly: In vitro Efficacy to destroy the RIF tumor cells by MTT assay when incubated for 3 hr at drug concentration of 1.5 uM and exposed to laser light (780nm,16J/cm2). It is filed as functional.
The test system of test [2] is Mus musculus. The test can be described thus: In vivo photosensitizing efficacy when evaluated in mice assessed on day 90. The class given is functional.

On to `CCCCCCCO[C@@H](C)C1=C(C)c2cc3[nH]c(c4c5[nH]c(cc6nc(cc1n2)[C@H](C)[C@H]6CC)c(C)c5C(=O)N(CCCCCC)C4=O)[C@@H](CCC(=O)OCCC)[C@@H]3C`, for which the results for the Efficacy in the test filed under Mus musculus [1] and in the test with Mus musculus [2] were 100% and 2 No. of mice tumor free, respectively.

Take `CCCCCCCO[C@H](C)C1=C(C)c2cc3[nH]c(c4c5[nH]c(cc6nc(cc1n2)[C@H](C)[C@H]6CC)c(C)c5C(=O)N(CCCCCC)C4=O)[C@@H](CCC(=O)OCCC)[C@@H]3C`: the Efficacy in the test filed under Mus musculus [1] was 100%; with Mus musculus [2], 6 No. of mice tumor free.
